The target in experiment [1] is T1, Aquaporin 9 (AQP9) (Mus musculus, UniProt Q9JJJ3).
T1 sequence (Q9JJJ3 1-295): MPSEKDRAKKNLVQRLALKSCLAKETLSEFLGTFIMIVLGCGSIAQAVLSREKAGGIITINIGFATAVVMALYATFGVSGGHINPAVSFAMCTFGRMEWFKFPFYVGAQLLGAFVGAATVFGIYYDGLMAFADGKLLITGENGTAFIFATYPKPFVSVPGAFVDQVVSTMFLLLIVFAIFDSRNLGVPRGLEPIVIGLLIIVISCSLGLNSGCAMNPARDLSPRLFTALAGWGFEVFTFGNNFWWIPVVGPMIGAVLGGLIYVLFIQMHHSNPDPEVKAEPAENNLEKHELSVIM
Briefly: water and glycerol permeability in CHO cells expressing mouse AQP9 (calcein fluorescence). It is filed as cell-based.

In experiment [2] the target is T1, Aquaporin 9 (AQP9). As to the kind of experiment: glycerol, water and H2O2 permeability in CHO cells expressing mouse AQP9 (calcein / HyPer-3 fluorescence). It is filed as cell-based.

The structures appear in SMILES notation.

For `O=C(CCc1ccc(O)cc1)c1c(O)cc(O)cc1O` [Phlor, phloretin], on Aquaporin 9 (AQP9) [1], the IC50 was roughly 720 nM.
`CCn1c(SCC(=O)Nc2nnc(-c3ccc(OC(C)C)cc3)s2)nnc1C(C)C` [RG, RG100204]: the half-inhibitory concentration (IC50) at Aquaporin 9 (AQP9) [2] is roughly 76 nM.

As a reminder, the IC50 is the midpoint of a concentration-inhibition curve.

The values above are taken from article PMC9238327, “RG100204, A Novel Aquaporin-9 Inhibitor, Reduces Septic Cardiomyopathy and Multiple Organ Failure in Murine Sepsis” (Frontiers in Immunology, 2022).
